Source: patent publication US12419890B2, “Administration of sumo-activating enzyme inhibitor and checkpoint inhibitors” (Takeda Pharmaceutical Company Limited, priority 2019, dated 2025)

Tested on: JC syngeneic mouse breast adenocarcinoma-derived subcutaneous tumor
Experiment: JC Study 6: mouse JC syngeneic tumor model, individual tumor volume
Assay type: in vivo
Settings: Compound I-263a 7.5 mg/kg IV or anti-mPD-1 10 mg/kg IP, BIWx3 till Day 14
Description: JC Study 6: JC is a mouse breast adenocarcinoma cell line. JC mouse syngeneic tumor model was generated by subcutaneous inoculation with 0.2×10^6 JC cells (cell suspension) in 10 weeks old female BALB/c mice (Vital River Laboratory Animal Technology Co., Ltd., Beijing, China) in the flank. When the mean tumor volume reached approximately 45 mm^3, the animals were randomized into one vehicle control and five treatment groups (n=8/group). Mice were then dosed with 20% HPbCD or Compound I-263a or anti-mouse PD-1 antibody over a 21-day period. Tumor growth and body weight were measured twice per week during the treatment and post-treatment periods, and mice were humanely euthanized once they had reached their humane endpoint.
Study 6: A 0.75 mg/mL stock solution of Compound I-263a was formulated weekly in 20% HPβCD and administered intravenously (IV) based on exact animal body weight on each day of treatment, using a dosing volume of 10 mL/kg body weight. Final doses received were 7.5 mg/kg. Dosing volume for Compound I-263a was 0.2 mL. […]
Tumors were measured twice weekly using vernier calipers. Tumor volumes were calculated using standard equation: V=W^2×L/2, where V=volume, W=width, and L=length for the tumor. […] Tumor size and body weight were measured twice a week for the duration of the study. […]

Structure (SMILES): Cc1sc(C(=O)c2cncnc2N[C@@H]2C[C@H](COS(N)(=O)=O)[C@@H](O)C2)cc1[C@@H]1NCCc2ccc(Cl)cc21 [Compound I-263a, [(1R,2S,4R)-4-{[5-({4-[(1R)-7-chloro-1,2,3,4-tetrahydroisoquinolin-1-yl]-5-methyl-2-thienyl}carbonyl)pyrimidin-4-yl]amino}-2-hydroxycyclopentyl]methyl sulfamate]
- tumor growth inhibition / antitumor activity (8 tumors/group): very little tumor growth inhibition
- tumors with slight growth delay (delay from day 16-18, out of 8 implanted): one
